Test results taken from PubChem BioAssay AID212 (DTP/NCI, 2004).
“And” between values parts separate entries of the source, which are not always exact repeats. Identical values can stand only once. Records with an inconclusive call do not appear.

Tested on: BDF1 mice, colon carcinoma 38 sc, T/C %
Assay: NCI In Vivo Anticancer Drug Screen. Data for tumor model Colon Carcinoma 38 (subcutaneous) in B6D2F1 (BDF1) mice
Summary of the method: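 Compound antitumor activity was assessed in mice carrying transplantable tumors. Survival or tumor size was recorded, and each value is the treated-group measurement divided by that of the vehicle-treated control group.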

[1] = endpoint: median tumor weight (est.), dose: 12.5 mg/kg/injection, schedule: Q07DX002 (ip), vehicle: saline with Tween-80, higher = larger tumour
[2] = endpoint: median tumor weight (est.), dose: 50.0 mg/kg/injection, schedule: Q07DX002 (ip), vehicle: saline with Tween-80, higher = larger tumour
[3] = endpoint: median tumor weight (est.), dose: 200.0 mg/kg/injection, schedule: Q07DX002 (ip), vehicle: saline with Tween-80, higher = larger tumour
[4] = endpoint: median tumor weight (est.), dose: 400.0 mg/kg/injection, schedule: Q07DX002 (ip), vehicle: saline with Tween-80, higher = larger tumour
[5] = endpoint: median tumor weight (est.), dose: 100.0 mg/kg/injection, schedule: Q07DX002 (ip), vehicle: saline with Tween-80, higher = larger tumour
[6] = endpoint: median tumor weight (est.), dose: 25.0 mg/kg/injection, schedule: Q07DX002 (ip), vehicle: saline with Tween-80, higher = larger tumour

## COc1ccc(C(N)=O)cc1N=NN(C)C
endpoint: median tumor weight (est.), dose: 6.25 mg/kg/injection, schedule: Q07DX003 (ip), vehicle: Klucel (hydroxypropylcellulose) (HPC), higher = larger tumour
  T/C: 97 % of control
endpoint: median tumor weight (est.), dose: 12.5 mg/kg/injection, schedule: Q07DX003 (ip), vehicle: Klucel (hydroxypropylcellulose) (HPC), higher = larger tumour
  T/C: 111 % of control
endpoint: median tumor weight (est.), dose: 25.0 mg/kg/injection, schedule: Q07DX003 (ip), vehicle: Klucel (hydroxypropylcellulose) (HPC), higher = larger tumour
  T/C: 89 % of control
endpoint: median tumor weight (est.), dose: 50.0 mg/kg/injection, schedule: Q07DX003 (ip), vehicle: Klucel (hydroxypropylcellulose) (HPC), higher = larger tumour
  T/C: 66 % of control
endpoint: median tumor weight (est.), dose: 100.0 mg/kg/injection, schedule: Q07DX003 (ip), vehicle: Klucel (hydroxypropylcellulose) (HPC), higher = larger tumour
  T/C: 15 % of control

## COc1cccc2c1C(=O)c1c(O)c3c(c(O)c1C2=O)C[C@@](O)(C(C)=O)C[C@@H]3OC1CC(N(C)C)C(O)C(C)O1 (stereo partly drawn)
endpoint: median survival time, dose: 6.4 mg/kg/injection, schedule: Q07DX002 (iv), vehicle: saline, higher = longer survival
  T/C: 96 % of control
endpoint: median survival time, dose: 10.0 mg/kg/injection, schedule: Q07DX002 (iv), vehicle: saline, higher = longer survival
  T/C: 105 % of control
endpoint: median tumor weight (est.), dose: 2.25 mg/kg/injection, schedule: Q07DX002 (ip), vehicle: saline, higher = larger tumour
  T/C: 75 % of control and 89 % of control

## COC1(OC)C2C=CC1CC2
[1]
  T/C: 73 % of control
[2]
  T/C: 105 % of control and 107 % of control
[3]
  T/C: 80 % of control and 94 % of control
[4]
  T/C: 113 % of control and 105 % of control

## O=CC=O
[2]
  T/C: 72 % of control and 86 % of control
[5]
  T/C: 75 % of control and 77 % of control
[4]
  T/C: 80 % of control and 95 % of control

## C/C(=N\NC(N)=O)c1cccc(/C(C)=N/NC(N)=O)n1
[1]
  T/C: 87 % of control and 94 % of control
[6]
  T/C: 66 % of control and 71 % of control
[2]
  T/C: 73 % of control and 96 % of control
[3]
  T/C: 96 % of control
[4]
  T/C: 57 % of control

## CCOC(=O)C(CC(C)C)NC(=O)C(Cc1ccc(N(CCCl)CCCl)cc1)NC(C)=O (stereo not drawn)
endpoint: median tumor weight (est.), dose: 32.0 mg/kg/injection, schedule: Q07DX002 (ip), vehicle: saline with Tween-80, higher = larger tumour
  T/C: 53 % of control
endpoint: median tumor weight (est.), dose: 32.0 mg/kg/injection, schedule: Q07DX003 (ip), vehicle: saline with Tween-80, higher = larger tumour
  T/C: 76 % of control
endpoint: median tumor weight (est.), dose: 64.0 mg/kg/injection, schedule: Q07DX002 (ip), vehicle: saline with Tween-80, higher = larger tumour
  T/C: 36 % of control
endpoint: median tumor weight (est.), dose: 64.0 mg/kg/injection, schedule: Q07DX003 (ip), vehicle: saline with Tween-80, higher = larger tumour
  T/C: 66 % of control
endpoint: median tumor weight (est.), dose: 128.0 mg/kg/injection, schedule: Q07DX003 (ip), vehicle: saline with Tween-80, higher = larger tumour
  T/C: 82 % of control

## COc1cccc2c1C(=O)c1c(O)c3c(c(O)c1C2=O)C[C@@](O)(/C(C)=N/NC(=O)c1ccccc1)C[C@@H]3OC1CC(N)C(O)C(C)O1 (stereo partly drawn)
endpoint: median tumor weight (est.), dose: 2.0 mg/kg/injection, schedule: Q07DX002 (ip), vehicle: water, higher = larger tumour
  T/C: 100 % of control
endpoint: median tumor weight (est.), dose: 4.0 mg/kg/injection, schedule: Q07DX002 (ip), vehicle: water, higher = larger tumour
  T/C: 107 % of control
endpoint: median tumor weight (est.), dose: 8.0 mg/kg/injection, schedule: Q07DX002 (ip), vehicle: water, higher = larger tumour
  T/C: 102 % of control
endpoint: median tumor weight (est.), dose: 16.0 mg/kg/injection, schedule: Q07DX002 (ip), vehicle: water, higher = larger tumour
  T/C: 16 % of control

## O=C1NC(=O)/C(=C/C=C/c2ccccc2)S1
endpoint: median tumor weight (est.), dose: 1.81 mg/kg/injection, schedule: Q07DX002 (ip), vehicle: saline with Tween-80, higher = larger tumour
  T/C: 70 % of control
endpoint: median tumor weight (est.), dose: 3.62 mg/kg/injection, schedule: Q07DX002 (ip), vehicle: saline with Tween-80, higher = larger tumour
  T/C: 198 % of control
endpoint: median tumor weight (est.), dose: 7.25 mg/kg/injection, schedule: Q07DX002 (ip), vehicle: saline with Tween-80, higher = larger tumour
  T/C: 84 % of control
[1]
  T/C: 117 % of control and 100 % of control
endpoint: median tumor weight (est.), dose: 14.5 mg/kg/injection, schedule: Q07DX002 (ip), vehicle: saline with Tween-80, higher = larger tumour
  T/C: 85 % of control
[6]
  T/C: 65 % of control and 80 % of control
endpoint: median tumor weight (est.), dose: 29.0 mg/kg/injection, schedule: Q07DX002 (ip), vehicle: saline with Tween-80, higher = larger tumour
  T/C: 69 % of control
endpoint: median tumor weight (est.), dose: 58.0 mg/kg/injection, schedule: Q07DX002 (ip), vehicle: saline with Tween-80, higher = larger tumour
  T/C: 78 % of control
[5]
  T/C: 175 % of control
